Measured values: article PMC2233835 (The Journal of General Physiology, 2001)

What was measured:
ROON-S2 = conditions: mean ± SD, ref Tibbs et al. 1997, Tibbs et al. 1998; cited from earlier work
X-βR/αC = target: T1, X-βR/αC (Bos taurus, UniProt Q00194, A200G/A344S/A378F/A555S/A582V/A614G/C169F/D157S/D193E/D502E/D538A/D577E/D604Q/DEL101-144/DEL91-95/E147F/E148K/E189Q/E196F/E230D/E231L/F201L/F214C/F374V/F533Y/G160D/G591K/I156V/I181L/I182V/I235R/I504V/I530V/I566L/I609E/I611V/INS98[…]/K146T/K150R/K151W/K237N/K239I/K346C/K506R/K518R/K521Q/K554M/K590Q/K596R/K598R/L195F/L199V/L210I/L351F/L548I/M175L/M213T/M580R/M592V/M602R/N161D/N165Y/N610S/N613A/P158Q/P173A/Q599E/Q97T/R232A/R345F/R369K/S192D/S205C/S240R/S350C/S371E/S537G/S540L/S553N/T162I/T171A/T179I/T217L/T364M/T584S/V153G/V154F/V174S/V208I/V215I/V487E/V497T/V534A/Y194N/Y197L); assay: Macroscopic current dose–response in inside-out patches from Xenopus oocytes; type: cell-based, chimera of bovine CNG1, catfish CNG2 and rat CNG5
T1 sequence (Q00194 with tags, fused parts or gaps DEL91-95/Q97T/INS98[…]/DEL101-144/K146T/E147F/E148K/K150R/K151W/V153G/V154F/I156V/D157S/P158Q/G160D/N161D/T162I/N165Y/C169F/T171A/P173A/V174S/M175L/T179I/I181L/I182V/E189Q/S192D/D193E/Y194N/L195F/E196F/Y197L/L199V/A200G/F201L/S205C/V208I/L210I/M213T/F214C/V215I/T217L/E230D/E231L/R232A/I235R/K237N/K239I/S240R/A344S/R345F/K346C/S350C/L351F/T364M/R369K/S371E/F374V/A378F/V487E/V497T/D502E/I504V/K506R/K518R/K521Q/I530V/F533Y/V534A/S537G/D538A/S540L/L548I/S553N/K554M/A555S/I566L/D577E/M580R/A582V/T584S/K590Q/G591K/M592V/K596R/K598R/Q599E/M602R/D604Q/I609E/N610S/I611V/N613A/A614G): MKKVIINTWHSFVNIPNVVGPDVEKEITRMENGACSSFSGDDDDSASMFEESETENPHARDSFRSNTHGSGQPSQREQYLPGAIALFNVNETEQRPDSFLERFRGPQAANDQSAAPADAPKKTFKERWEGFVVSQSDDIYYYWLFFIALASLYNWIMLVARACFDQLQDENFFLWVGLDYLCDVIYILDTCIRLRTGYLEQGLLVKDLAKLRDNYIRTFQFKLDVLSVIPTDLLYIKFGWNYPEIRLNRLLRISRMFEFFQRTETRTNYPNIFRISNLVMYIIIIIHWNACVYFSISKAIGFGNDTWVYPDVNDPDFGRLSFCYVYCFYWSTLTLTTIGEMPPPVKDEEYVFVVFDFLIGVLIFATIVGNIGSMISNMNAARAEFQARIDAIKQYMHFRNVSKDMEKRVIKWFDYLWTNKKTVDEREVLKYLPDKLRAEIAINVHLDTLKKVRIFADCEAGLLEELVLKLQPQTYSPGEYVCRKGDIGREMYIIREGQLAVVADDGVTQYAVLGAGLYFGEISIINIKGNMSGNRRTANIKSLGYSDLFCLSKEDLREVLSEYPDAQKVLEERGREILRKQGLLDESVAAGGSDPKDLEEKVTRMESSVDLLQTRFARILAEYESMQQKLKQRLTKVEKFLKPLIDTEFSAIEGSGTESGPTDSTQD

X-α homomeric channels = target: T2, X-α homomeric channels (Bos taurus, UniProt Q00194, A200G/A344S/A378F/A555M/A614G/C169F/D157S/D193E/D538A/D604Q/DEL101-144/DEL91-95/E147F/E148K/E189Q/E196F/E230D/E231L/F201L/F214C/F374V/G160D/G591K/I156V/I181L/I182V/I235R/I530V/I609E/I611V/INS98[…]/K146T/K150R/K151W/K237N/K239I/K346C/K506R/K521Q/K551Q/K564R/K590Q/K596R/K598R/L195F/L199V/L210I/L351F/L583V/M175L/M213T/M592V/M602R/N161D/N165Y/N610S/N613A/P158Q/P173A/Q494R/Q599E/Q97T/R232A/R345F/R369K/R512K/S192D/S205C/S240R/S350C/S371E/S537T/S540G/T162I/T171A/T179I/T217L/T364M/T584A/V153G/V154F/V174S/V208I/V215I/V534A/V535L/Y194N/Y197L/Y541C); assay: as above; type: cell-based, chimera of bovine CNG1 and catfish CNG2
T2 sequence (Q00194 with tags, fused parts or gaps DEL91-95/Q97T/INS98[…]/DEL101-144/K146T/E147F/E148K/K150R/K151W/V153G/V154F/I156V/D157S/P158Q/G160D/N161D/T162I/N165Y/C169F/T171A/P173A/V174S/M175L/T179I/I181L/I182V/E189Q/S192D/D193E/Y194N/L195F/E196F/Y197L/L199V/A200G/F201L/S205C/V208I/L210I/M213T/F214C/V215I/T217L/E230D/E231L/R232A/I235R/K237N/K239I/S240R/A344S/R345F/K346C/S350C/L351F/T364M/R369K/S371E/F374V/A378F/Q494R/K506R/R512K/K521Q/I530V/V534A/V535L/S537T/D538A/S540G/Y541C/K551Q/A555M/K564R/L583V/T584A/K590Q/G591K/M592V/K596R/K598R/Q599E/M602R/D604Q/I609E/N610S/I611V/N613A/A614G): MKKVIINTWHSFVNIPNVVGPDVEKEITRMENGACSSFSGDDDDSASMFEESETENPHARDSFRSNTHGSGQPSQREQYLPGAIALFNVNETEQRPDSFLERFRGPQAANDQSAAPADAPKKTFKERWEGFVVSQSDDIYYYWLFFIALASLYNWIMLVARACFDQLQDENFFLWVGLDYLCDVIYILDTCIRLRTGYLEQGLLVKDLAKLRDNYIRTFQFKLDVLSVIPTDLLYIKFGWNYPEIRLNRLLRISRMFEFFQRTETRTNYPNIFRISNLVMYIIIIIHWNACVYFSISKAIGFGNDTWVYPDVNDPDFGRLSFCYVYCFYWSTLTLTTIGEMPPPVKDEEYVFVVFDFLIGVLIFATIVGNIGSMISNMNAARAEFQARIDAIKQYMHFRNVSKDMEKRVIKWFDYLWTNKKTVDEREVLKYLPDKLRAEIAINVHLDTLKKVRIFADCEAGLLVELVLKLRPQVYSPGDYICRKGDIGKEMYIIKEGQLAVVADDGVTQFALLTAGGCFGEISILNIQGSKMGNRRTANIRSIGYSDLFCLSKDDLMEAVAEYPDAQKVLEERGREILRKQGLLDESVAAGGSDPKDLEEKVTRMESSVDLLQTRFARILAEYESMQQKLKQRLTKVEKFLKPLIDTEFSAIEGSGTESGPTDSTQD

- Hill coefficient h (X-βR/αC; one patch (Fig. 6 B2), −100 mV, Hill fit ± SE): 1.95 ± 0.22
- agonist concentration at maximum of steady-state Popen dose–response curve (X-α homomeric channels): ~3 mM
- Hill coefficient h (X-α homomeric channels; −100 mV, Hill fit of composite dataset, cGMP: only data ≤3 mM): 1.210 ± 0.046
SMILES: Nc1nc2c(ncn2[C@@H]2O[C@@H]3COP(=O)([O-])O[C@H]3[C@H]2O)c(=O)[nH]1.[Na+] [cGMP]
- Hill coefficient h (ROON-S2): 1.89 ± 0.38 (10)
- Desensitization (X-βR/αC): No
- Desensitization (X-α homomeric channels; agonist up to 30 mM): Yes
- agonist concentration at which macroscopic current decays (desensitization) (X-α homomeric channels; steady-state level lower than in 3 mM cGMP): ≥ 10 mM
